According to patent US20210236467A1, “DANTROLENE FORMULATIONS AND METHODS OF THEIR USE” (EAGLE PHARMACEUTICALS, INC., priority 2018, published 2021):
Values after ≈ are worked out from the molar mass of the structure shown.

Columns and labels:
[1] = Dissolution and solution stability by visual inspection; assay type: physicochemical; conditions: for dissolution on visual inspection: target 10 mg/mL in PEG400, after vortexing
Procedure: 13.0 mgs of dantrolene acid was dissolved in 1.3 mL of PEG400, targeting 10 mg/mL dantrolene acid. 12.7 mgs of dantrolene sodium was dissolved in 1.27 mL of PEG400, targeting 10 mg/mL of dantrolene sodium. […] Both tubes were centrifuged for 5 min at 3,900 rpm at room temperature to separate the sample into supernatant (dantrolene acid or dantrolene sodium in solution) and pellet (insoluble material). […] The supernatant of the dantrolene acid sample was transferred into a clean tube. The dantrolene acid supernatant and the dantrolene sodium solution were diluted 100- and 200-fold in 25% acetonitrile for analysis on the UPLC as described below.
(§1) Dantrolene sodium (6.4 mg) was weighed into a glass vial and propylene glycol (0.128 mL) was added, using a positive displacement pipette to achieve a target concentration of 50 mg/mL of dantrolene sodium. The contents of the vials were mixed with a positive displacement pipette. Visual inspection confirmed that the solutions were clear. The sample was a stable solution for at about 2 days at room temperature, after which time, precipitate formed. The precipitate was 99.9% dantrolene, as determined using HPLC.
as §1, with “(6.2” for “(6.4”, “PEG400 (0.124” for “propylene glycol (0.128”, “that” for “that the”

[2] = Solubility / concentration determination by UPLC of supernatant; assay type: physicochemical; conditions: organic solvent or mixture, thermodynamic from solid; saturated supernatant, room temperature, propylene glycol
Procedure: (§2) 11.2 mgs of dantrolene acid was added to 224 uL of PEG400. […] The tube was centrifuged for 5 min at 15,000 rpm at room temperature to separate the sample into supernatant (dantrolene acid in solution) and pellet (insoluble material). The supernatant was transferred into a clean tube and diluted 100-, 200- and 400-fold in 25% acetonitrile for analysis by UPLC as described below.
as §2, with “16.3” for “11.2”, “326” for “224”, “propylene glycol.” for “PEG400.”, “50-, 100-” for “100-, 200-”, “200-fold” for “400-fold”, “below. The solubility of dantrolene acid in propylene glycol was calculated as ˜0.8 mg/mL.” for “below.”
13.0 mgs of dantrolene acid was dissolved in 1.3 mL of PEG400, targeting 10 mg/mL dantrolene acid. […]
Analysis was performed using an Agilent UPLC System equipped with a diode array detector and an Agilent C18 Zorbax column. Samples were analyzed using a gradient method with mobile phase A containing 0.1% trifluoroacetic acid in water and mobile phase B containing 0.1% trifluoroacetic acid in acetonitrile. […] A 10 uL sample was injected and the analytes were detected by UV at 385 nm. […] Peak areas were determined by manual integration. […]

[3] = Precipitation on dilution/addition of water; assay type: physicochemical
[4] = cited from earlier work
[5] = Effective pH determination (10-fold dilution of non-aqueous sample in water); assay type: physicochemical; conditions: for effective pH of 10 mg/mL samples in PEG400: Example 3, target 10 mg/mL in PEG400, 10-fold dilution in water, ratios acid:sodium by volume; for pH of the supernatant (effective pH): 10-fold dilution in water
Procedure: The pH of the supernatant was measured by making a 10-fold dilution of the supernatant in water.
The effective pH of the supernatant was measured by making a 10-fold dilution of the supernatant in water.
The effective pH of the dantrolene acid supernatant and dantrolene sodium sample was measured by making 10-fold dilutions in water, per the methods described elsewhere herein.
The effective pH of each sample was measured by making 10F dilutions in water. The pH values were recorded as follows—
Effective pH measurements were conducted at ambient room temperature, using a Thermo Scientific Orion Star A111 pH benchtop meter. The instrument was calibrated within one day of the effective pH measurement using phosphate buffers at pH 4, 7, and 10 (Hydrion Tri-Chek Buffer Capsule set).
Samples were prepared by diluting the non-aqueous/anhydrous sample 10 fold with water. The diluted sample was vortexed for about 10 to 15 seconds. Effective pH was measured using the pre-calibrated pH benchtop meter, directly after vortexing.
After each effective pH measurement, the pH bulb was rinsed with an appropriate rinse solution to remove the entire test sample from the bulb.

[6] = pH of aqueous slurry of dantrolene sodium; assay type: physicochemical; conditions: 43.5 mg in 43.5 mL of water
Procedure: 43.5 mgs of dantrolene sodium was slurried in 43.5 mL of water in a conical tube. The pH of the initial of the slurry was 9.89.

SMILES | dissolution on visual inspection [1] | solubility [2] | behaviour of the 10-fold dilution in water ([3]; PEG400 supernatant) | behaviour of the 10-fold dilution in water ([3]; propylene glycol supernatant) | solubility in water [4] | effective pH of 10 mg/mL samples in PEG400 [5] | pH of the supernatant (effective pH) ([5]; PEG400 supernatant) | pH of the supernatant (effective pH) ([5]; propylene glycol supernatant) | time as stable solution before precipitate formed ([1]; 50 mg/mL in PEG400, room temperature) | time as stable solution before precipitate formed ([1]; 50 mg/mL in propylene glycol, room temperature) | visual inspection of solution ([1]; target 50 mg/mL in PEG400) | visual inspection of solution ([1]; target 50 mg/mL in propylene glycol) | effect of addition of 50 μL of water ([3]; 50 mg/mL in PEG400 (0.124 mL)) | effect of addition of 50 μL of water ([3]; 50 mg/mL in propylene glycol (0.128 mL)) | pH of the initial slurry [6]
O=C1CN(/N=C/c2ccc(-c3ccc([N+](=O)[O-])cc3)o2)C(O)=N1 [dantrolene acid, 1-{[5-(4-nitrophenyl)-2-furyl]methylideneamino}imidazolidine-2,4-dione] | cloudy after vortexing | ~800 µg/mL (≈ 2550 µM) | precipitated out quickly | precipitated out slowly | very poorly soluble in water | 4.95 | 4.88 | 5.73 |  |  |  |  |  |  | 
O=C1CN(/N=C/c2ccc(-c3ccc([N+](=O)[O-])cc3)o2)C(O)=N1 [dantrolene sodium] | completely dissolved |  |  |  |  | 9.67 |  |  | about 2 days | about 2 days | clear | clear | precipitation | precipitation | 9.89
